Measurements reported in patent US20020055495A1, “Two-component anti-emetic composition” (priority 2000, published 2002).
Like-named read-outs stand apart in the source and are kept apart here. Values belong to the compound of their own block, whether it stands above or below them.

Experiments:
nausea and emesis = conditions: cited from earlier work
dopamine D2 receptor = dopamine D2 receptor (Homo sapiens, UniProt P14416); test: dopamine D2 receptor binding, metoclopramide alone and with dexamethasone added
dopamine D2 receptor, sequence (P14416 whole entry, species assumed): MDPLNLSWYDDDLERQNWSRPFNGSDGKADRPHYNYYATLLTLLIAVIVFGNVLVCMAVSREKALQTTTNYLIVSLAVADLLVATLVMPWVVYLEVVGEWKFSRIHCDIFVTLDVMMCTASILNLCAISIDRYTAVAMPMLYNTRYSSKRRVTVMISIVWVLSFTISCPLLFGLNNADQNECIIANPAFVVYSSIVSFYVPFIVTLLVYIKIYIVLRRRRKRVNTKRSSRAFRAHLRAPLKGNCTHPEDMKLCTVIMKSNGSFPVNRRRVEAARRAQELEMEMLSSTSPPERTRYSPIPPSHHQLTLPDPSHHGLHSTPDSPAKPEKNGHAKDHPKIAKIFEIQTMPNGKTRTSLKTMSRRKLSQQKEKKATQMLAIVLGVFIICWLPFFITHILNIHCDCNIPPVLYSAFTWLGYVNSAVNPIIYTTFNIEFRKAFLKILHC
Procedure: Metoclopramide is an inhibitor of the dopamine D2 receptor which negatively effects motor function through D2 blockade causing extrapyramidal signs and symptoms (EPS). The effect of the addition of a steroid, such as dexamethasone, on metoclopramide's binding affinity at the dopamine D2 receptor is studied. […] Dexamethasone is then added in relative concentrations based on weight to achieve the following results: […]

male Spargue-Dawley rats = test: locomotor depressant effect in rats (center distance traveled, Digiscan activity monitors); format: in vivo, rat; conditions: metaclopramide 4 mg/kg s.c., rats pretreated with saline, 30 minutes recording
Procedure: In this example, the effect of the addition of a steroid, such as dexamethasone, on metoclopramide's locomotor depressant effects is studied. Forty-eight male Spargue-Dawley rats (250-350 g) are used for this experiment. The rats are housed in pairs and allowed free access to food and water and are not handled except for cage changes and weighing prior to testing. All experimental procedures are performed during the rat's nocturnal cycle, in dimly lit behavior rooms, except that the rats are moved to adjacent behavior rooms 30 minutes prior to testing. Eight rats are tested at a time, four rats from each condition are tested together and groups are randomly chosen to control for order sequence effects. The locomotor experiments are carried out in clear, acrylic 41×41×30 cm test chambers inside Ominitech Digiscan activity monitors (Accuscan, Inc.). Each monitor uses two arrays of infrared photocell beams (8×8 photocells, model RXYZCM-8) to detect several parameters of the rat's movement both horizontally and vertically. Data is collected in 5-min bins during testing. Dexamethasone (Sigma) is dissolved in deionized water at concentrations of 0.16, 0.4, 0.8, and 4 mg/ml. […] Each rat is then immediately placed into a locomotor testing box and the data is recorded for 30 minutes (5-min bins). The data is analyzed with a one way ANOVA for the dependent variable, center distance traveled. […]

[1] = cited from earlier work

SMILES: Cc1nccn1CC1CCc2c(c3ccccc3n2C)C1=O (stereo not shown) [ondansetron]
anti-emetic efficacy (nausea and emesis; Soukop et al. 1992, repeated chemotherapy for breast cancer): significantly superior than MTC

% Inhibition D2 Binding (dopamine D2 receptor; MTC 8.6 nM, alone or with DEX (0.7-17.2 nM) added at the stated DEX:MTC weight ratio): 50%
IC50 (dopamine D2 receptor; metoclopramide alone, read-out: IC50 (the concentration that inhibits 50% of dopamine D2 binding)): 8.6 nM
center distance traveled (locomotor depressant effect) (male Spargue-Dawley rats): significantly reduces
SMILES: CCN(CC)CCNC(=O)c1cc(Cl)c(N)cc1OC [metoclopramide]
solubility in aqueous solution ([1]; acid addition salt form): freely soluble in aqueous solution
solubility in water ([1]; free base form): quite water insoluble

SMILES: CN1C2CCCC1CC(NC(=O)c1nn(C)c3ccccc13)C2 (stereo not shown) [oral granisetron, granisetron]
anti-emetic efficacy (nausea and emesis; Heron et al. 1994, Chevallier 1993, cisplatin-induced emesis): superior to MTC
